# Measurements reported in PMC5936891, “A focused library synthesis and cytotoxicity of quinones derived from the natural product bolinaquinone” (Royal Society Open Science, 2018).
# Entries after “also recorded” stand apart in the source; their conditions may differ.
# Tests used:
# SJ-G2 (glioblastoma) = assay: MTT in vitro growth inhibition assay, SJ-G2; assay type: cell-based; settings: 25 µM of drug, 72 h, read-out: Percentage of Cell Growth Inhibition SJ-G2
# [1] = tested on: panel of 11 cancer cell lines and one normal cell line; assay: Cytotoxicity across the whole cell line panel (MTT); assay type: cell-based; settings: for activity at the initial screening concentration (to proceed to GI50 determination): 25 µM single dose
# Description: With the desired bolinaquinone analogues 12–43 in hand, we examined their cytotoxicity against a panel of 11 tumour cell lines: HT29 (colon carcinoma), U87 and SJ-G2 (glioblastoma), MCF-7 (breast carcinoma), A2780 (ovarian carcinoma), H460 (lung carcinoma), A431 (skin carcinoma), Du145 (prostate carcinoma), BE2-C (neuroblastoma), MIA (pancreatic carcinoma), SMA (spontaneous murine astrocytoma) and a normal breast cell line (MCF10A). The inclusion of the MCF-10A cell line allowed a determination of a crude measure of relative toxicity while noting that the ultimate arbiter of toxicity requires in vivo evaluation. All analogues were initially screened at a 25 µM drug concentration.
# Stock solutions were prepared as follows and stored at −20°C: drugs were stored as 40 mM solutions in DMSO. All cell lines were cultured in a humidified atmosphere 5% CO2 at 37°C. The cancer cell lines were maintained in Dulbecco's modified Eagle's medium (DMEM) (Trace Biosciences, Australia) supplemented with 10% fetal bovine serum, 10 mM sodium bicarbonate, penicillin (100 IU ml^−1), streptomycin (100 µg ml^−1) and glutamine (4 mM). The non-cancer MCF10A cell line was cultured in DMEM:F12 (1 : 1) cell culture media, 5% heat-inactivated horse serum, supplemented with penicillin (50 IU ml^−1), streptomycin (50 µg ml^−1), 20 mM Hepes, L-glutamine (2 mM), epidermal growth factor (20 ng ml^−1), hydrocortisone (500 ng ml^−1), cholera toxin (100 ng ml^−1) and insulin (10 ug ml^−1).
# Cells in logarithmic growth were transferred to 96-well plates. Cytotoxicity was determined by plating cells in duplicate in 100 µl medium at a density of 2500–4000 cells per well. On day 0 (24 h after plating), when the cells were in logarithmic growth, 100 μl of medium with or without the test agent was added to each well. After 72 h, drug exposure growth inhibitory effects were evaluated using the MTT (3-[4,5-dimethylthiazol-2-yl]-2,5-diphenyl-tetrazolium bromide) assay and the absorbance read at 540 nm. Percentage growth inhibition was determined at a fixed drug concentration of 25 µM. A value of 100% is indicative of complete cell growth inhibition. Those analogues showing appreciable percentage growth inhibition underwent further dose–response analysis allowing for the calculation of a GI50 value. This value is the drug concentration at which cell growth is 50% inhibited based on the difference between the optical density values on day 0 and those at the end of drug exposure.
# A431 (skin carcinoma) = assay: MTT in vitro growth inhibition assay, A431; assay type: cell-based; settings: Homo sapiens; for inhibition at 25 µM: A-431, 25 µM of drug, 72 h, read-out: Percentage of Cell Growth Inhibition A431
# [2] = tested on: MIA (pancreatic carcinoma); assay: MTT in vitro growth inhibition assay, MIA; assay type: cell-based; settings: for inhibition at 25 µM: 25 µM of drug, 72 h, read-out: Percentage of Cell Growth Inhibition MIA
# [3] = tested on: Du145 (prostate carcinoma); assay: MTT in vitro growth inhibition assay, Du145; assay type: cell-based; settings: Homo sapiens; for inhibition at 25 µM: DU-145, 25 µM of drug, 72 h, read-out: Percentage of Cell Growth Inhibition Du145
# BE2-C (neuroblastoma) = assay: MTT in vitro growth inhibition assay, BE2-C; assay type: cell-based; settings: Homo sapiens, BE(2)-C, 72 h; for inhibition at 25 µM: 25 µM of drug, read-out: Percentage of Cell Growth Inhibition BE2-C
# U87 (glioblastoma) = assay: MTT in vitro growth inhibition assay, U87; assay type: cell-based; settings: for inhibition at 25 µM: 25 µM of drug, 72 h, read-out: Percentage of Cell Growth Inhibition U87
# MCF-7 (breast carcinoma) = assay: MTT in vitro growth inhibition assay, MCF-7; assay type: cell-based; settings: Homo sapiens; for inhibition at 25 µM: MCF7, 25 µM of drug, 72 h, read-out: Percentage of Cell Growth Inhibition MCF-7
# H460 (lung carcinoma) = assay: MTT in vitro growth inhibition assay, H460; assay type: cell-based; settings: Homo sapiens; for inhibition at 25 µM: NCI-H460, 25 µM of drug, 72 h, read-out: Percentage of Cell Growth Inhibition H460
# [4] = tested on: A2780 (ovarian carcinoma); assay: MTT in vitro growth inhibition assay, A2780; assay type: cell-based; settings: Homo sapiens; for inhibition at 25 µM: 25 µM of drug, 72 h, read-out: Percentage of Cell Growth Inhibition A2780
# [5] = tested on: MCF10A (normal breast cell line); assay: MTT in vitro growth inhibition assay, MCF10A; assay type: cell-based; settings: Homo sapiens, MCF-10A; for inhibition at 25 µM: 25 µM of drug, 72 h, read-out: Percentage of Cell Growth Inhibition MCF10A
# [6] = tested on: SMA (spontaneous murine astrocytoma); assay: MTT in vitro growth inhibition assay, SMA; assay type: cell-based; settings: Mus musculus; for inhibition at 25 µM: 25 µM of drug, 72 h, read-out: Percentage of Cell Growth Inhibition SMA
# HT29 (colon carcinoma) = assay: MTT in vitro growth inhibition assay, HT29; assay type: cell-based; settings: Homo sapiens; for inhibition at 25 µM: HT-29, 25 µM of drug, 72 h, read-out: Percentage of Cell Growth Inhibition HT29
# [7] = tested on: HCT-116 colon carcinoma cells; settings: 50% growth inhibition; cited from earlier work
# [8] = tested on: L5178Y mouse lymphoma cells; design: method as in PMID 19995673, PMID 3839712; settings: cited from earlier work
# HeLa = tested on: HeLa; design: method as in PMID 19995673, PMID 3839712; settings: cited from earlier work
Compound,inhibition at 25 µM (SJ-G2 (glioblastoma)) [%],activity at the initial screening concentration (to proceed to GI50 determination) [1],inhibition at 25 µM (A431 (skin carcinoma)) [%],inhibition at 25 µM [2] [%],inhibition at 25 µM [3] [%],inhibition at 25 µM (BE2-C (neuroblastoma)) [%],inhibition at 25 µM (U87 (glioblastoma)) [%],inhibition at 25 µM (MCF-7 (breast carcinoma)) [%],inhibition at 25 µM (H460 (lung carcinoma)) [%],inhibition at 25 µM [4] [%],inhibition at 25 µM [5] [%],inhibition at 25 µM [6] [%],melting point [°C],inhibition at 25 µM (HT29 (colon carcinoma)) [%],other results
CCCNC1=C(c2ccc3ccccc3c2)C(=O)C(NCCC)=C(c2cccc3ccccc23)C1=O [compound 43],55 ± 1,sufficient activity,92 ± 1,90 ± 2,80 ± 2,44 ± 6,91 ± 1,77 ± 2,76 ± 1,94 ± 1,89 ± 2,80 ± 7,210 to 213,81 ± 2,"potency enhancement over parent analogue ([1]; 41 vs parent 29, 43 vs parent 33, on introduction of amine substituents): greater than or equal to 20 fold; GI50 ([1]; average over the cell line panel, read-out: average GI50): 690 nM; GI50 (A431 (skin carcinoma); A-431, 72 h, 72 h drug exposure): 110 nM; GI50 ([2]; 72 h drug exposure): 100 nM; GI50 ([3]; DU-145, 72 h, 72 h drug exposure): 160 ± 100 nM; GI50 (BE2-C (neuroblastoma); 72 h drug exposure): 80 nM; GI50 (U87 (glioblastoma); 72 h drug exposure): 2100 ± 1000 nM; GI50 (MCF-7 (breast carcinoma); MCF7, 72 h drug exposure): 170 ± 100 nM; GI50 (H460 (lung carcinoma); NCI-H460, 72 h drug exposure): 110 nM; GI50 ([4]; 72 h drug exposure): 140 ± 100 nM; GI50 ([5]; normal breast cell line, 72 h drug exposure): 70 nM; GI50 ([6]; 72 h drug exposure): 3900 ± 3500 nM; GI50 (HT29 (colon carcinoma); HT-29, 72 h drug exposure): 80 nM"
"COC1=CC(=O)C(OC)=C(c2ccccc2OC)C1=O [compound 18, 3-(2-Methoxyphenyl)-2,5-dimethoxycyclohexa-2,5-diene-1,4-diene]",17 ± 8,not sufficiently active,28 ± 4,19 ± 5,14 ± 8,75 ± 9,15 ± 2,22 ± 9,22 ± 2,33 ± 6,15 ± 5,34 ± 8,162 to 164,13 ± 6,
"COC1=CC(=O)C(OC)=C(c2ccc3ccccc3c2)C1=O [compound 24, 2,5-Dimethoxy-3-(naphthalene-3-yl)cycloheza-2,5-diene-1,4-dione]",20 ± 4,not sufficiently active; also recorded: inactive,< 10,< 10,11,65 ± 20,15 ± 4,22 ± 6,12 ± 4,54 ± 15,13 ± 6,31 ± 10,137 to 139,< 10,
"COC1=CC(=O)C(O)=C(C[C@@]2(C)CC[C@]3(C)C(C)=CCC[C@H]3[C@H]2C)C1=O [compound 1, bolinaquinone]",,,,,,,,,,,,,,,GI50 [7]: 5300 nM
"CC1=CCC[C@H]2[C@](C)(CC3=CC(=O)C=CC3=O)[C@@H](C)CC[C@]12C [compound 2, avarone]",,,,,,,,,,,,,,,ED50 L5178Y mouse lymphoma cells [8]: 620 ± 110 nM; GI50 (HeLa): 26800 ± 3000 nM
